From patent US12679848B2, “Plasma kallikrein inhibitors” (Merck Sharp & Dohme LLC, priority 2020, dated 2026)
pIC50: −log10 of the molar value.

Assays:
[1] = target: T1, Human plasma kallikrein (Homo sapiens, UniProt P03952); assay: Plasma Kallikrein Assay; type: biochemical; settings: purified Human plasma kallikrein 0.5 nM, substrate Acetyl-K-P-R-AFC, HEPES pH 7.4; read-out: PKal IC50
T1 construct: yields a heavy chain (371 amino acids) and a light chain (248 amino acids); The active site of plasma kallikrein is contained in the light chain; purchased Enzyme Research Laboratories
Procedure, shortened: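 Purified human plasma kallikrein at 0.5 nM final with substrate Acetyl-K-P-R-AFC at […], in 50 mM HEPES pH 7.4, 150 mM NaCl, 5 mM CaCl2, 0.1% PEG 8000, at rt or 37° C after enzyme-inhibitor equilibration. IC50 from four-parameter logistic fit of fluorescence rate; Ki via Cheng-Prusoff.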

[2] = target: human factor XIa (Homo sapiens, UniProt P03951); assay: Factor XIa Assay; type: biochemical; settings: human factor XIa 0.04 nM, substrate GPR-AFC, 30 min pre-incubation, 25° C., pH 7.4; read-out: FXIa IC50
Sequence of human factor XIa (P03951 388-625 limits assumed): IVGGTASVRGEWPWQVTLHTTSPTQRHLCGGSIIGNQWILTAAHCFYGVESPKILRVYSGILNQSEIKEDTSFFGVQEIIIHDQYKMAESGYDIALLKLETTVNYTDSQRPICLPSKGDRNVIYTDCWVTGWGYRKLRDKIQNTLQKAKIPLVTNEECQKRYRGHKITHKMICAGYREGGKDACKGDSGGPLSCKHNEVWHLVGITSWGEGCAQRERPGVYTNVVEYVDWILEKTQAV
Sequence of human factor XIa (P03951 19-387 partner limits assumed): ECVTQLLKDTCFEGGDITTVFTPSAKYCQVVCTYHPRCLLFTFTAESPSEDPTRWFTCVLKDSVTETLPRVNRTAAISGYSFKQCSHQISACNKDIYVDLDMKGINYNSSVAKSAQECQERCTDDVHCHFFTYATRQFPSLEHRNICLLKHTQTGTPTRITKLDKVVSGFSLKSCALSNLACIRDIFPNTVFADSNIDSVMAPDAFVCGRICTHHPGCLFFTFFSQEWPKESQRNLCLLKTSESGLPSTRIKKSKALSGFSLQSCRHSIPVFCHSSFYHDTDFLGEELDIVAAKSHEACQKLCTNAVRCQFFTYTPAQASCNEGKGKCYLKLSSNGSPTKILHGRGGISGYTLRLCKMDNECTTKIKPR

T1 sequence (P03952 391-638 limits assumed): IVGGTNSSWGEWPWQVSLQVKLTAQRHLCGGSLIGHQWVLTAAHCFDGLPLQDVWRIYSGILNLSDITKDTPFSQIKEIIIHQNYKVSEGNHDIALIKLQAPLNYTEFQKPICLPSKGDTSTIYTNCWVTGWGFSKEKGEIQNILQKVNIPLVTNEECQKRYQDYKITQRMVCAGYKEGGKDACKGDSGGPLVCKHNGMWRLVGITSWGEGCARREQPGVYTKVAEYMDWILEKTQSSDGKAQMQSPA
T1 sequence (P03952 20-390 partner limits assumed): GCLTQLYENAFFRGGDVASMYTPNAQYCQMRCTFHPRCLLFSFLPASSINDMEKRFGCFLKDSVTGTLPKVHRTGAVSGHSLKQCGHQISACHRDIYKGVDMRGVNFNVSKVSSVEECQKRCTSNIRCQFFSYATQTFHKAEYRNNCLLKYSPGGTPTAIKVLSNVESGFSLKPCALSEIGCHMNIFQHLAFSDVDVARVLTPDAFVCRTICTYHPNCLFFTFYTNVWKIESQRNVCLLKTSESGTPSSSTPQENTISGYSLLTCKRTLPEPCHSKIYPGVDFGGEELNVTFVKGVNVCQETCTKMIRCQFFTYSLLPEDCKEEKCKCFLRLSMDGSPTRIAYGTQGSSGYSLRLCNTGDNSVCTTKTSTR

Row | Compound | pIC50 [1] | pIC50 [2]
1 | Nc1c(C(=O)N2CCC[C@@]3(C2)OC(=O)Nc2ccc(Cl)c(F)c23)cnn1CCC(F)(F)F [Example 27, (R)-1'-(5-Amino-1-(3,3,3-trifluoropropyl)-1H-pyrazole-4-carbonyl)-6-chloro-5-fluorospiro[benzo[d][1,3]oxazine-4,3'-piperidin]-2(1H)-one] | 7.73 | 6.16
2 | Nc1c(C(=O)N2CCC[C@@]3(C2)OC(=O)Nc2ccc(Cl)c(F)c23)cnn1C1(C(F)(F)F)CC1 [Example 50, (R)-1'-(5-Amino-1-(1-(trifluoromethyl)cyclopropyl)-1H-pyrazole-4-carbonyl)-6-chloro-5-fluorospiro[benzo[d][1,3]oxazine-4,3'-piperidin]-2(1H)-one] | 8.08 | 6.16
3 | Nc1c(C(=O)N2CCC[C@@]3(C2)OC(=O)Nc2ccc(Cl)c(F)c23)cnn1C1CCOCC1 [Example 18, (R)-1'-(5-Amino-1-(tetrahydro-2H-pyran-4-y1)-1H-pyrazole-4-carbonyl)-6-chloro-5-fluorospiro[benzo[d][1,3]oxazine-4,3'-piperidin]-2(1H)-one] | 7.41 | 5.78
4 | COCC(C)(n1ncc(C(=O)N2CCC[C@@]3(C2)OC(=O)Nc2ccc(Cl)c(F)c23)c1N)C(F)(F)F (single isomer, unassigned) [Example 129] | 8.19 | 6.05
5 | COc1cc(F)ccc1-n1ncc(C(=O)N2CCC[C@@]3(C2)OC(=O)Nc2ccc(Cl)c(F)c23)c1N [Example 100, (R)-1'-(5-Amino-1-(4-fluoro-2-methoxyphenyl)-1H-pyrazole-4-carbonyl)-6-chloro-5-fluorospiro[benzo[d][1,3]oxazine-4,3'-piperidin]-2(1H)-one] | 8.05 | 6.43
6 | Nc1c(C(=O)N2CCC[C@@]3(C2)OC(=O)Nc2ccc(Cl)c(F)c23)cnn1CC(F)(F)F [Example 1, (R)-1′-(5-Amino-1-(2,2,2-trifluoroethyl)-1H-pyrazole-4-carbonyl)-6-chloro-5-fluorospiro[benzo[d][1,3]oxazine-4,3′-piperidin]-2(1H)-one] | 7.95 | 6.39
7 | CCC(n1ncc(C(=O)N2CC(C)(C)C[C@@]3(C2)OC(=O)Nc2ccc(Cl)c(F)c23)c1N)C(F)(F)F (single isomer, unassigned) [Example 131, (R)-1'-(5-Amino-1-((S or R)-1,1,1-trifluorobutan-2-y1)-1H-pyrazole-4-carbonyl)-6-chloro-5-fluoro-5',5'-dimethylspiro[benzo[d][1,3]oxazine-4,3'-piperidin]-2(1H)-one] | 8.92 | 7.15
8 | Nc1c(C(=O)N2CCC[C@@]3(C2)OC(=O)Nc2ccc(Cl)c(F)c23)cnn1Cc1cncnc1 [Example 51, (R)-1'-(5-Amino-1-(pyrimidin-5-ylmethyl)-1H-pyrazole-4-carbonyl)-6-chloro-5-fluorospiro[benzo[d][1,3]oxazine-4,3'-piperidin]-2(1H)-one] | 8.01 | 6.00
9 | Cc1ccccc1-n1ncc(C(=O)N2CCC[C@@]3(C2)OC(=O)Nc2ccc(Cl)c(F)c23)c1N [Example 64, (R)-1'-(5-Amino-1-(o-toly1)-1H-pyrazole-4-carbonyl)-6-chloro-5-fluorospiro[benzo[d][1,3]oxazine-4,3'-piperidin]-2(1H)-one] | 7.55 | 5.88
10 | Nc1c(C(=O)N2CCC[C@@]3(C2)OC(=O)Nc2ccc(Cl)c(F)c23)cnn1-c1ccccc1OC1CCC1 [Example 97, (R)-1'-(5-Amino-1-(2-cyclobutoxyphenyl)-1H-pyrazole-4-carbonyl)-6-chloro-5-fluorospiro[benzo[d][1,3]oxazine-4,3'-piperidin]-2(1H)-one] | 8.10 | 5.89
11 | Cc1ccc(-n2ncc(C(=O)N3CCC[C@@]4(C3)OC(=O)Nc3ccc(Cl)c(F)c34)c2N)c(C)c1 [Example 86, (R)-1'-(5-Amino-1-(2,4-dimethylphenyl)-1H-pyrazole-4-carbonyl)-6-chloro-5-fluorospiro[benzo[d][1,3]oxazine-4,3'-piperidin]-2(1H)-one] | 7.34 | 6.19
12 | CCn1ncc(C(=O)N2CCC[C@@]3(C2)OC(=O)Nc2ccc(Cl)c(F)c23)c1N [Example 25, (R)-1'-(5-Amino-1-ethy1-1H-pyrazole-4-carbonyl)-6-chloro-5-fluorospiro[benzo[d][1,3]oxazine-4,3'-piperidin]-2(1H)-one] | 7.61 | 5.70
13 | Nc1c(C(=O)N2CCC[C@@]3(C2)OC(=O)Nc2ccc(Cl)c(F)c23)cnn1-c1cc(F)ccc1F [Example 76, (R)-1'-(5-Amino-1-(2,5-difluorophenyl)-1H-pyrazole-4-carbonyl)-6-chloro-5-fluorospiro[benzo[d][1,3]oxazine-4,3'-piperidin]-2(1H)-one] | 7.53 | 5.97
14 | Nc1c(C(=O)N2CCC[C@@]3(C2)OC(=O)Nc2ccc(Cl)c(F)c23)cnn1C1(C(F)(F)F)CC(F)(F)C1 [Example 52, (R)-1'-(5-Amino-1-(3,3-difluoro-1-(trifluoromethyl)cyclobutyl)-1H-pyrazole-4-carbonyl)-6-chloro-5-fluorospiro[benzo[d][1,3]oxazine-4,3'-piperidin]-2(1H)-one] | 8.04 | 6.01

Results, then the molecule that gave them:

Row | pIC50 [1] | pIC50 [2] | Compound
15 | 8.37 | 6.66 | CC(n1ncc(C(=O)N2CCC[C@@]3(C2)OC(=O)Nc2ccc(Cl)c(F)c23)c1N)C(F)(F)F (single isomer, unassigned) [Example 120, (R)-1'-(5-Amino-1-((R or S)-1,1,1-trifluoropropan-2-y1)-1H-pyrazole-4-carbonyl)-6-chloro-5-fluorospiro[benzo[d][1,3]oxazine-4,3'-piperidin]-2(1H)-one]
16 | 9.00 | 6.36 | Nc1c(C(=O)N2CCC[C@@]3(C2)OC(=O)Nc2ccc(Cl)c(F)c23)cnn1Cc1ccc(F)c(F)c1 [Example 33, (R)-1'-(5-Amino-1-(3,4-difluorobenzy1)-1H-pyrazole-4-carbonyl)-6-chloro-5-fluorospiro[benzo[d][1,3]oxazine-4,3'-piperidin]-2(1H)-one]
17 | 8.33 | 6.01 | COCC(C)(n1ncc(C(=O)N2CCC[C@@]3(C2)OC(=O)Nc2ccc(Cl)c(F)c23)c1N)C(F)(F)F (single isomer, unassigned) [Example 128, (R)-1'-(5-Amino-1-((R or S)-1,1,1-trifluoro-3-methoxy-2-methylpropan-2-y1)-1H-pyrazole-4-carbonyl)-6-chloro-5-fluorospiro[benzo[d][1,3]oxazine-4,3'-piperidin]-2(1H)-one]
18 | 7.88 | 6.38 | Cc1cnccc1-n1ncc(C(=O)N2CCC[C@@]3(C2)OC(=O)Nc2ccc(Cl)c(F)c23)c1N [Example 105, (R)-1'-(5-Amino-1-(3-methylpyridin-4-y1)-1H-pyrazole-4-carbony1)-6-chloro-5-fluorospiro[benzo[d][1,3]oxazine-4,3'-piperidin]-2(1H)-one]
19 | 9.15 | 8.40 | CCC(c1ccccc1)n1ncc(C(=O)N2CCC[C@@]3(C2)OC(=O)Nc2ccc(Cl)c(F)c23)c1N (single isomer, unassigned) [Example 116, (R)-1'-(5-Amino-1-((S or R)-1-phenylpropyl)-1H-pyrazole-4-carbonyl)-6-chloro-5-fluorospiro[benzo[d][1,3]oxazine-4,3'-piperidin]-2(1H)-one]
20 | 7.68 | 5.84 | CC1(n2ncc(C(=O)N3CCC[C@@]4(C3)OC(=O)Nc3ccc(Cl)c(F)c34)c2N)CCS(=O)(=O)C1 (single isomer, unassigned) [Example 119]
21 | 7.96 | 6.37 | COCCn1ncc(C(=O)N2CCC[C@@]3(C2)OC(=O)Nc2ccc(Cl)c(F)c23)c1N [Example 24, (R)-1'-(5-Amino-1-(2-methoxyethyl)-1H-pyrazole-4-carbonyl)-6-chloro-5-fluorospiro[benzo[d][1,3]oxazine-4,3'-piperidin]-2(1H)-one]
22 | 8.00 | 6.52 | Nc1c(C(=O)N2CCC[C@@]3(C2)OC(=O)Nc2ccc(Cl)c(F)c23)cnn1-c1ccccc1C1CC1 [Example 95, (R)-1'-(5-Amino-1-(2-cyclopropylphenyl)-1H-pyrazole-4-carbonyl)-6-chloro-5-fluorospiro[benzo[d][1,3]oxazine-4,3'-piperidin]-2(1H)-one]
23 | 8.06 | 5.95 | Nc1c(C(=O)N2CCC[C@@]3(C2)OC(=O)Nc2ccc(Cl)c(F)c23)cnn1C1(C(F)(F)F)CCOCC1 [Example 53, (R)-1'-(5-Amino-1-(4-(trifluoromethyl)tetrahydro-2H-pyran-4-y1)-1H-pyrazole-4-carbonyl)-6-chloro-5-fluorospiro[benzo[d][1,3]oxazine-4,3'-piperidin]-2(1H)-one]
24 | 6.72 | 6.48 | Nc1c(C(=O)N2CCC[C@@]3(C2)OC(=O)Nc2ccc(Cl)c(F)c23)nnn1Cc1ccccc1 [Example 133, (R)-1′-(5-Amino-1-benzyl-1H-1,2,3-triazole-4-carbonyl)-6-chloro-5-fluorospiro[benzo[d][1,3]oxazine-4,3′-piperidin]-2(1H)-one]
25 | 7.77 | 6.05 | Nc1c(C(=O)N2CCC[C@@]3(C2)OC(=O)Nc2ccc(Cl)c(F)c23)cnn1CC(F)F [Example 15, (R)-1'-(5-Amino-1-(2,2-difluoroethyl)-1H-pyrazole-4-carbonyl)-6-chloro-5-fluorospiro[benzo[d][1,3]oxazine-4,3'-piperidin]-2(1H)-one]
26 | 8.77 | 6.57 | Nc1c(C(=O)N2CCC[C@@]3(C2)OC(=O)Nc2ccc(Cl)c(F)c23)cnn1Cc1ccncc1 [Example 32, (R)-1'-(5-Amino-1-(pyridin-4-ylmethyl)-1H-pyrazole-4-carbonyl)-6-chloro-5-fluorospiro[benzo[d][1,3]oxazine-4,3'-piperidin]-2(1H)-one]
